{"source": "the NIST ThermoML archive (doi:10.1021/je9004905)", "settings": "Liquid, Closed cell (Static) method", "note": "Several values for one entry are separate records, joined by “and”; a condition that tells them apart may be missing. Equal values may be shown once. Numbers after ± are expanded uncertainties.", "data": [{"smiles": "OCCO", "note": "[1,2-ethanediol]", "values": [{"measurement": "vapor or sublimation pressure", "setting": "307.7 K", "result": "0.028 ± 0.002", "unit": "kPa"}, {"measurement": "vapor or sublimation pressure", "setting": "312.6 K", "result": "0.041 ± 0.004", "unit": "kPa"}, {"measurement": "vapor or sublimation pressure", "setting": "316.5 K", "result": "0.055 ± 0.006", "unit": "kPa"}, {"measurement": "vapor or sublimation pressure", "setting": "318.8 K", "result": "0.061 ± 0.006", "unit": "kPa"}, {"measurement": "vapor or sublimation pressure", "setting": "322.1 K", "result": "0.077 ± 0.008", "unit": "kPa"}, {"measurement": "vapor or sublimation pressure", "setting": "326.1 K", "result": "0.107 ± 0.01", "unit": "kPa"}, {"measurement": "vapor or sublimation pressure", "setting": "328.2 K", "result": "0.124 ± 0.012", "unit": "kPa"}, {"measurement": "vapor or sublimation pressure", "setting": "334.5 K", "result": "0.196 ± 0.026", "unit": "kPa"}, {"measurement": "vapor or sublimation pressure", "setting": "335.2 K", "result": "0.201 ± 0.028", "unit": "kPa"}, {"measurement": "vapor or sublimation pressure", "setting": "340.2 K", "result": "0.278 ± 0.039", "unit": "kPa"}, {"measurement": "vapor or sublimation pressure", "setting": "347.9 K", "result": "0.454 ± 0.065", "unit": "kPa"}, {"measurement": "vapor or sublimation pressure", "setting": "359.2 K", "result": "0.9 ± 0.12", "unit": "kPa"}, {"measurement": "vapor or sublimation pressure", "setting": "367.9 K", "result": "1.483 ± 0.19", "unit": "kPa"}, {"measurement": "vapor or sublimation pressure", "setting": "373.4 K", "result": "1.95 ± 0.27", "unit": "kPa"}, {"measurement": "vapor or sublimation pressure", "setting": "384.5 K", "result": "3.467 ± 0.47", "unit": "kPa"}]}, {"smiles": "O=CCO", "note": "[2-hydroxyacetaldehyde]", "values": [{"measurement": "vapor or sublimation pressure", "setting": "295.85 K", "result": "0.0037 ± 0.0004", "unit": "kPa"}, {"measurement": "vapor or sublimation pressure", "setting": "305.1 K", "result": "0.009 ± 0.0011", "unit": "kPa"}, {"measurement": "vapor or sublimation pressure", "setting": "305.51 K", "result": "0.0096 ± 0.0024", "unit": "kPa"}, {"measurement": "vapor or sublimation pressure", "setting": "319.5 K", "result": "0.0335 ± 0.0057", "unit": "kPa"}, {"measurement": "vapor or sublimation pressure", "setting": "319.84 K", "result": "0.0335 ± 0.0057", "unit": "kPa"}, {"measurement": "vapor or sublimation pressure", "setting": "322.38 K", "result": "0.0368 ± 0.0057", "unit": "kPa"}, {"measurement": "vapor or sublimation pressure", "setting": "323.64 K", "result": "0.0458 ± 0.0069", "unit": "kPa"}, {"measurement": "vapor or sublimation pressure", "setting": "327.73 K", "result": "0.062 ± 0.011", "unit": "kPa"}, {"measurement": "vapor or sublimation pressure", "setting": "333.04 K", "result": "0.0984 ± 0.02", "unit": "kPa"}, {"measurement": "vapor or sublimation pressure", "setting": "339.32 K", "result": "0.153 ± 0.018", "unit": "kPa"}, {"measurement": "vapor or sublimation pressure", "setting": "340.91 K", "result": "0.17 ± 0.02", "unit": "kPa"}, {"measurement": "vapor or sublimation pressure", "setting": "341.95 K", "result": "0.182 ± 0.024", "unit": "kPa"}, {"measurement": "vapor or sublimation pressure", "setting": "342.82 K", "result": "0.198 ± 0.03", "unit": "kPa"}, {"measurement": "vapor or sublimation pressure", "setting": "346.83 K", "result": "0.253 ± 0.036", "unit": "kPa"}, {"measurement": "vapor or sublimation pressure", "setting": "355.98 K", "result": "0.486 ± 0.052", "unit": "kPa"}]}, {"smiles": "CC(=O)CO", "note": "[acetol]", "values": [{"measurement": "vapor or sublimation pressure", "setting": "273.22 K", "result": "0.127 ± 0.018", "unit": "kPa"}, {"measurement": "vapor or sublimation pressure", "setting": "275.48 K", "result": "0.136 ± 0.018", "unit": "kPa"}, {"measurement": "vapor or sublimation pressure", "setting": "277.78 K", "result": "0.162 ± 0.022", "unit": "kPa"}, {"measurement": "vapor or sublimation pressure", "setting": "278.55 K", "result": "0.167 ± 0.022 kPa and 0.172 ± 0.022 kPa"}, {"measurement": "vapor or sublimation pressure", "setting": "280.9 K", "result": "0.201 ± 0.084", "unit": "kPa"}, {"measurement": "vapor or sublimation pressure", "setting": "281.69 K", "result": "0.205 ± 0.026 kPa and 0.21 ± 0.026 kPa"}, {"measurement": "vapor or sublimation pressure", "setting": "289.86 K", "result": "0.356 ± 0.042", "unit": "kPa"}, {"measurement": "vapor or sublimation pressure", "setting": "290.7 K", "result": "0.363 ± 0.042 kPa and 0.36 ± 0.042 kPa"}, {"measurement": "vapor or sublimation pressure", "setting": "293.26 K", "result": "0.431 ± 0.05", "unit": "kPa"}, {"measurement": "vapor or sublimation pressure", "setting": "295.86 K", "result": "0.516 ± 0.06 kPa and 0.495 ± 0.058 kPa"}, {"measurement": "vapor or sublimation pressure", "setting": "296.74 K", "result": "0.531 ± 0.062", "unit": "kPa"}, {"measurement": "vapor or sublimation pressure", "setting": "300.3 K", "result": "0.617 ± 0.07", "unit": "kPa"}, {"measurement": "vapor or sublimation pressure", "setting": "301.2 K", "result": "0.642 ± 0.072", "unit": "kPa"}, {"measurement": "vapor or sublimation pressure", "setting": "302.11 K", "result": "0.717 ± 0.08", "unit": "kPa"}, {"measurement": "vapor or sublimation pressure", "setting": "303.03 K", "result": "0.746 ± 0.084", "unit": "kPa"}, {"measurement": "vapor or sublimation pressure", "setting": "303.95 K", "result": "0.817 ± 0.092", "unit": "kPa"}]}]}
